“And” between values parts separate entries of the source, which are not always exact repeats. Equal values may be shown once. *1 amine or outer side, *2 acyl side, *3 side chain or, on linkers, in order; H or OH if unused. Where a SMILES comes first, the peptide text is derived from it. Bridges are numbered along the chain shown (N, C = ends). [ ]: non-standard residue; d: D form. The star is where a group is joined. Ethylenediamine = C(CN[*:2])N[*:1]; Aad = N[C@@H](CCCC(=O)O)C(=O)O; Pen = CC(C)(S)[C@H](N)C(=O)O; Orn = NCCC[C@H](N)C(=O)O; NH(CH2)5NH2 = NCCCCCN*
Assays:
Fibronectin Receptor = Fibronectin Receptor (Homo sapiens, UniProt P05556+P08648); assay: Human Fibronectin-Fibronectin Receptor ELISA Assay; assay type: binding; design: octylglucoside (OG) extracted human placenta; from tissue; host or cells: human placenta; conditions: human placenta fibronectin receptor, fibronectin-coated plates; read-out: ELISA IC50 Fibronectin FnR
Sequence of Fibronectin Receptor (P08648 42-894 limits assumed): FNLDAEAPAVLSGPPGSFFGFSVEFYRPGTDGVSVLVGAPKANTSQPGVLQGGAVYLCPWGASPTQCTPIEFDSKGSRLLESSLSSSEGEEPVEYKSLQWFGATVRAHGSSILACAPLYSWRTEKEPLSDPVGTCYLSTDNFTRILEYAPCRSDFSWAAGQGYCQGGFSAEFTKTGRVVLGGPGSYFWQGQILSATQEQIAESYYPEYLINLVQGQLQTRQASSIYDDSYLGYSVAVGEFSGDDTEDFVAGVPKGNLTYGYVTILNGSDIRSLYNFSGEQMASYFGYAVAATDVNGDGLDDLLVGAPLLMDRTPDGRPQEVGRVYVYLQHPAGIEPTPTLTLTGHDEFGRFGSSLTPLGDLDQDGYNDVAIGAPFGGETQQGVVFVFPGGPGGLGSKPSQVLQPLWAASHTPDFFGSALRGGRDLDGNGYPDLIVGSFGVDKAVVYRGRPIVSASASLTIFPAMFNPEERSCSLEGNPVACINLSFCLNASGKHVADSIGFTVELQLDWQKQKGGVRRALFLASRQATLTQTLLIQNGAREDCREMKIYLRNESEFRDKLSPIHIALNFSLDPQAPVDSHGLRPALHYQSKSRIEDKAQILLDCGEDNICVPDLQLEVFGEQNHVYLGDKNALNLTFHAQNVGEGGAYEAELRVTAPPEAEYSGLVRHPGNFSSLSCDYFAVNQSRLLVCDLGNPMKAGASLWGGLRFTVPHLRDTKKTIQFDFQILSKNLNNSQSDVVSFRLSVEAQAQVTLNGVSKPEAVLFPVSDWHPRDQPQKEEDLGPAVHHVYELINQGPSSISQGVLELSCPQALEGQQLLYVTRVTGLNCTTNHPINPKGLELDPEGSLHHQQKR
Sequence of Fibronectin Receptor (P08648 895-1049 partner limits assumed): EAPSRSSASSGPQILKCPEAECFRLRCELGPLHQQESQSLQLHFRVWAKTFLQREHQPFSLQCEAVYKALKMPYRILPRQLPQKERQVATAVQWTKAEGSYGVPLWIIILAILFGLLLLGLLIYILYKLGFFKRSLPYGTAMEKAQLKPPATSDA
Sequence of Fibronectin Receptor (P05556 21-798): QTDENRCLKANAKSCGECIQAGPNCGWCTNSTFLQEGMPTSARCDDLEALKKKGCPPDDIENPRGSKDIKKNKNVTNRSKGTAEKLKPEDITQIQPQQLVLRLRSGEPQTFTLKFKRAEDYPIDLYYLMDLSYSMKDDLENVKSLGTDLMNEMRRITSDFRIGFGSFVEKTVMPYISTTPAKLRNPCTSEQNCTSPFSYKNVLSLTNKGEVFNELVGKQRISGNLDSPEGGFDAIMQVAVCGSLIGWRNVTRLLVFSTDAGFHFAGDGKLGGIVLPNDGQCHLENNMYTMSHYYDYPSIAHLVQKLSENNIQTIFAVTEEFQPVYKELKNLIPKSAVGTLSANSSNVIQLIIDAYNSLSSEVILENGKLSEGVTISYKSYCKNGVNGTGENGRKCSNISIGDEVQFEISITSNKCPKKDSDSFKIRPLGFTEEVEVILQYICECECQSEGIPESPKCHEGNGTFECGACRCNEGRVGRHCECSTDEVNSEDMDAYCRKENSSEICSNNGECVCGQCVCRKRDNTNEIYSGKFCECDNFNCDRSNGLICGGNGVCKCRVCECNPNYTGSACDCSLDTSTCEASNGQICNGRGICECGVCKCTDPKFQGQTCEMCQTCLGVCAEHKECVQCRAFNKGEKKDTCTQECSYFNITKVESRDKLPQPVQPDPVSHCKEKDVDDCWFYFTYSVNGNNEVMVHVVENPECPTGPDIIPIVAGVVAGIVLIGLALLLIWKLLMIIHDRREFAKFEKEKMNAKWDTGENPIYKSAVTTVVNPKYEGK
Method: Fibronectin receptor is purified according to the procedures of Pytela et al., (Methods Enzymol. 144:475 […]). Briefly, fibronectin receptor is purified employing an Arg-Gly-Asp affinity chromatography from (100 mM) octylglucoside (OG) extracted human placenta. The OG extract is filtered over Sepharose 6B GRGDSPK column. The column is washed three times with three column volumes of Tris-buffered saline (TBS) TBS, 1 mM CaCl2, and 25 mM OG. The receptor is eluted with TBS, 20 mM EDTA, and 25 mM Octyl thioglucoside, and is stored in 1 mM CaCl2, 1 mM MgCl2, at -80° C.
Microtiter plates are coated with 110 μl human fibronectin (at 2 μg/ml) in TBS. Plates are washed three times with TBS containing 0.05% Tween 20. Test inhibitors are then added after washing in 10 microliter aliquots. The fibronectin receptor is added in 2-fold serial dilutions with TBS containing 20 mM octyl glucoside and 2 mM MnCl2. Plates are incubated three hours at room temperature, and washed with 200 μl TBS-Tween 20 buffer. 100 μl of affinity-purffied rabbit anti-human fibronectin receptor antibody is added to the wells and the plates are incubated two hours, washed twice with TBS-Tween and once with distilled water. Affinity-purified goat anti-rabbit IgG conjugated to horseradish peroxidase (100 μl) is added to each well followed by incubation for 60 minutes at room temperature. Plates are again washed twice with TBS-Tween and distilled water. 100 μl of substrate mixture (10 mg o-phenylenediamine in 25 ml 0.1M citrate-phosphate buffer, pH 5.0 6 μ30% H2 O2) is added to the plates and allowed to develop. The development process is stopped by adding 50 μl of 4N H2 SO4 to each well and read at […].

[1] = test system: New Zealand White rabbits; assay: Rabbit cutaneous bleeding time (CBT); conditions: for Rabbit BT Ratio: Example 1, at the % P.A. inhibition given
Method: Unanesthetized male New Zealand White rabbits (2.5-3.5 kg) are placed in a standard rabbit restrainer. Ears are shaved and a 20 G Teflon catheter with flowswitch (Viggo) is placed in the medial artery, flushed with saline and locked with 1 ml of heparinized saline (10 m/ml). A 22 G catheter (Abbott) fitted with an injection cap (Medex) is placed in the marginal vein of the same ear. Saline or a GP IIb IIIa receptor antagonist, at a concentration of 1 to 3 mg/ml, is infused via the venous catheter. At time 0, 41% of the dose is given as a bolus over 2 minutes. The remainder is continuously infused over the following 60 minutes. Blood samples (3.2 ml) are collected into syringes without needles via the arterial catheter at -10, -5, 10, 45, and 60 minutes. The first 0.5 ml is discarded and the following 2.7 ml is collected directly into a syringe containing 0.3 ml of 3.8% sodium citrate. The sample is divided into 1.5 ml aliquots and centrifuged at room temperature for 5 seconds at 12,000 G. The resulting platelet rich plasma (PRP) is used to measure ex-vivo platelet aggregation (XPA). At -10 and 60 minutes an additional 1 cml sample is drawn for an automated blood count (Baker instruments). Catheters are flushed and locked after every sample.
CBT is measured at -10, -5, 10, and 45 minutes on the opposite ear, using an automated incision-making instrument (Surgicutt®, ITD). An incision (5mm×1 mm deep) is made on the dorsal surface of the ear at sites not supplied by major blood vessels. Blood is blotted away with absorbent paper placed near the incision site, every 2 to 15 seconds, to a maximum of 15 minutes. Cessation of bleeding is defined as no blood forming at the incision site for 15 seconds. The range of duplicate CBT in 40 normal rabbits was 0.88 to 3.38 minutes.

GP IIb IIIa = GP IIb IIIa (Homo sapiens, UniProt P05106+P08514); assay: Fibrinogen-GP IIb IIIa Receptor ELISA Binding Assay; design: from tissue; host or cells: outdated human platelets; conditions: purified human platelet GP IIb IIIa, fibrinogen-coated plates; read-out: ELISA IC50 Fibrinogen GPIIb IIIa
Sequence of GP IIb IIIa (P08514 32-887 limits assumed): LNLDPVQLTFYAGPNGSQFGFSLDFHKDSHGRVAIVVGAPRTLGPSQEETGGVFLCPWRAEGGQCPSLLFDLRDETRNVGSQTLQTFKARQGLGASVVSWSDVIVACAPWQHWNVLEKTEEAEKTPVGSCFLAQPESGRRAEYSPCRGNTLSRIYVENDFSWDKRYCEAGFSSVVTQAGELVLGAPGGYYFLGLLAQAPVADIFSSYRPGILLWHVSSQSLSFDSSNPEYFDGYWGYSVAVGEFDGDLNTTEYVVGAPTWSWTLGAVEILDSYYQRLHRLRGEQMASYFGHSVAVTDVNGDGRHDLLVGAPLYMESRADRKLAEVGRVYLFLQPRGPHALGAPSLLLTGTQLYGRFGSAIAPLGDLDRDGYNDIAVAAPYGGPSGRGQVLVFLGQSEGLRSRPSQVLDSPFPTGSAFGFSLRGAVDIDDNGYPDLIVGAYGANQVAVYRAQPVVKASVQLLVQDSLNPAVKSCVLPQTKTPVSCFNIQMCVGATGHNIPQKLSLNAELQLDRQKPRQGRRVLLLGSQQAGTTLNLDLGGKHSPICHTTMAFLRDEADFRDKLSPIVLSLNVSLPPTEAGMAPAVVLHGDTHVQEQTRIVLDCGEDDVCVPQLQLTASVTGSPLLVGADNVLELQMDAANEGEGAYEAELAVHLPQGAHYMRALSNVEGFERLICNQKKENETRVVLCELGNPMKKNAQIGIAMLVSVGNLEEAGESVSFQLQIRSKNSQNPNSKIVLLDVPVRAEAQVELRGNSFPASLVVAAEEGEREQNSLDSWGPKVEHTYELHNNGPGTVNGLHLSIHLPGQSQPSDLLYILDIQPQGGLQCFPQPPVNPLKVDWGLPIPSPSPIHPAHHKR
Sequence of GP IIb IIIa (P08514 891-1039 partner limits assumed): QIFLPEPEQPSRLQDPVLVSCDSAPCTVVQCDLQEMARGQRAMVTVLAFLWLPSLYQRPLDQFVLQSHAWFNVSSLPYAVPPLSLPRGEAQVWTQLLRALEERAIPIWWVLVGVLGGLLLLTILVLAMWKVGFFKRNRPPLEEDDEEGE
Sequence of GP IIb IIIa (P05106 27-788): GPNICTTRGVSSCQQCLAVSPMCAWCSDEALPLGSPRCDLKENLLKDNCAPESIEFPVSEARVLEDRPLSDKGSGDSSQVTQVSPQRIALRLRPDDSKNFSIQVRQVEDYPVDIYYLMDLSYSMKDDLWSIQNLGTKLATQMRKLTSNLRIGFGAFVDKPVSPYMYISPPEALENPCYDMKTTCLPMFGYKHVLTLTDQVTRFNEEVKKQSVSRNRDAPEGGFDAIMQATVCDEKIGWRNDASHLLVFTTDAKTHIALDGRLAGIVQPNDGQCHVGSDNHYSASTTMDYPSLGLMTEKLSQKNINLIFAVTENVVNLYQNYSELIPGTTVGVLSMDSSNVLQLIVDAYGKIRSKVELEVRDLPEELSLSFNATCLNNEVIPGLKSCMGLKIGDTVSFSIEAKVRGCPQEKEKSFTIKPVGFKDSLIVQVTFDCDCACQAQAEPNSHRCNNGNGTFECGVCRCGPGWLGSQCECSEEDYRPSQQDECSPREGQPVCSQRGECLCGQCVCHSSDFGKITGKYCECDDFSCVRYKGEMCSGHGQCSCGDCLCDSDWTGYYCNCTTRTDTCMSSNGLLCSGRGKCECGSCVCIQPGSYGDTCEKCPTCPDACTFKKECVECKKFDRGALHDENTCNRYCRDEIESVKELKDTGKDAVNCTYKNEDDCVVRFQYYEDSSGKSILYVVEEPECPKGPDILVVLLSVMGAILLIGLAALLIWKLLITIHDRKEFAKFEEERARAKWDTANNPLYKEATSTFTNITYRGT
Method: The method used is essentially that described in Nachman and Leung (J. Clin. Invest., 69:263-269 [1982]). The GP IIb IIIa is essentially purified as described in Fitzgerald et al., (Anal. Biochem. 151:169-177 [1985]).
Outdated human platelets are washed 3 times with 10 mM tris-HCl, 150 mM NaCl (TBS), 1 mM EDTA, pH 7.5, and centrifuged at 2000×g to pellet cells. Cells are lysed in 5 pellet volumes of TBS, 1% Triton X-100, 1 mM Ca2 Cl2, and followed by centrifugation at 30,000×g. The supernatant fraction is collected and the supernatant is loaded onto a concanavalin-A column, previously equilibrated in TBS, 1 mM Ca2 Cl2, 0.1% Triton, 0.05% NaN3 and eluted with 0.2M α-methylmannoside. Fractions are pooled and loaded onto a heparin-agarose column. The flowthrough is collected and concentration on an Amicon YM 30 filter to a volume of approximately 5-10 mi. The concentrate is then applied to an S-300 column (500 ml) and 6 ml fractions are collected. The GP IIb IlIa containing fractions are collected, pooled, and stored at -80° C.
The purification of fibrinogen is conducted essentially as described by Lipinska et al., (J. Lab. Clin. Med. 507, [1974]). Briefly, a 0.3% w/v solution of human fibrinogen (Kabi #5302) is dissolved in 150 mM NaCl. Saturated (NH4)2 SO4 is added dropwise with stirring to the fibrinogen solution to obtain about 16% saturation. The precipitate is spun down in appropriate size bottles at 2000×g. The supernatant is decanted and the precipitate resuspended in 150 mM NaCl (approximately 50% of the original volume). NH4 SO4 is again added dropwise to obtain 16% saturation. The suspension is spun down and the precipitate is resuspended in Tris-saline in a minimal volume (approximately 5% of the original volume). Any remaining insoluble material is spun down at 2000 rpm in a Sorval type centrifuge and the fibrinogen supernatant is decanted and dialyzed overnight at 4° C. against Tris-saline. Characterization of the fibrinogen is by the Bradford protein assay, SDS-PAGE, and/or Western blotting using well known standard procedures.
Briefly, 96 well plates are coated (Type Nunc 1 Maxisorp™) with 10 μg/ml purified fibrinogen (100 μl/well), and allowed to stand overnight at 4° C. The plates are washed three times with PBS Tween (0.137M NaCl, 0.003M KCl, 0.008M Na2 HPO4, 0.001M KH2 PO4, pH 7.4 at room temperature, 0.05% Tween-20) and blocked for 1 to 2 hours at room temperature with 200 μl/well TNCNT (which is 0.5% BSA, 20mM Tris, pH 7.5 at room temperature, 120 mM NaCl, 0.2% NAN3, 2mM CaCl2, 0.05% Tween 20, 0.5% BSA [Calbiochem RIA grade or better]) on a plate shaker. The plates are again washed three times with PBS/Tween and then 50 μl of sample in TNCNT is added. The mixture is incubated for 15 minutes at room temperature on a plate shaker. The stock solution of purified GP IIb IIIa receptor from human platelets, (0.4-1.0 mg/ml GP IIb IIIa in 0.1% Triton X-100, 1 mM CaCl2, 20 mM Tris, 150 mM NaCl, 0.05% NaN3 in 0.3M N-acetyl glucosamine pH 7.5, stored at -70° C.), is reconstituted to about 40 μg/ml in TNCNT. Fifty μl of this diluted GP IIb IIIa is then added to each well and incubated on a plate shaker at room temperature. After one hour, the plates are washed four times with PBS/Tween and 100 μl of a polyclonal or monoclonal antibody specific for GP IIIa such as AP3 (1 μg/ml) (See e.g. Newman et al., Blood, 65:227-232 [1985]) in ELISA buffer (PBS, 0.5% BSA, 0.05% Tween 20, 0.01% Thimerasol) is added. After a one hour incubation at room temperature on a plate shaker, the samples are washed 4 times with PBS/Tween. One hundred μl of GAM-HRP (horse radish peroxidase conjugate of goat anti-mouse IgG [Pel-Freeze Cat. 715305-1] dissolved in ELISA buffer) previously diluted to 1:10,000 is then added and the samples are incubated 1 hour at room temperature on a plate shaker. […]

SMILES | IC50 (Fibronectin Receptor) [nM] | Rabbit BT Ratio [1] | IC50 (GP IIb IIIa) [nM] | cutaneous bleeding time, result in words [1]
N=C(N)NCCC[C@@H]1NC(=O)[C@@H](Cc2ccc(O)cc2)NC(=O)C(CCCCN)SC[C@@H](C(=O)O)NC(=O)[C@H](CC(=O)O)NC(=O)CNC1=O (single isomer, unassigned) [9/10, cyclo-S-2-L-(6-aminocaproyl)-Lys--dTyr--Arg--Gly--Asp--Cys--OH] | 2 | 8.17 | 5.3 | –
CC1(C)SCC(=O)N[C@H](Cc2ccc(O)cc2)C(=O)N[C@@H](CCCCN)C(=O)NCC(=O)N[C@@H](CC(=O)O)C(=O)N[C@@H]1C(=O)N[C@@H](CCCCN)C(N)=O [7/17, cyclo-S-acetyl-dTyr--Lys--Gly--Asp--Pen--Lys--NH2] ({CH2CO}-[dY]KGD[Pen]K-NH2; thioether N-5) | > 10000 | 1.13 and 1.0 | 238 | without substantial increased cutaneous bleeding time
N=C(N)NCCC[C@@H]1NC(=O)[C@@H](Cc2ccc(O)cc2)NC(=O)CSC[C@@H](C(=O)NCCCCCN)NC(=O)[C@H](CC(=O)O)NC(=O)CNC1=O [8/13, cyclo-S-acetyl-dTyr--Arg--Gly--Asp--Cys--NH--X (X = pentylamine)] ({CH2CO}-[dY]RGDC-{NH(CH2)5NH2}; thioether N-5) | 473 | 1.13 | 9 | –
N=C(N)NCCC[C@@H]1NC(=O)[C@@H](Cc2ccc(O)cc2)NC(=O)CSC[C@@H](C(=O)NCCN)NC(=O)[C@H](CC(=O)O)NC(=O)CNC1=O [8/23, cyclo-S-acetyl-dTyr--Arg--Gly--Asp--Cys--NH--X (X = ethyl amine)] ({CH2CO}-[dY]RGDC-Ethylenediamine; thioether N-5) | 61 | 0.81 | 14 | –
CC1(C)SCC(=O)N[C@H](Cc2ccc(O)cc2)C(=O)N[C@@H](CCCCN)C(=O)NCC(=O)N[C@@H](CC(=O)O)C(=O)N[C@@H]1C(=O)N[C@@H](CCCNC(=N)N)C(N)=O [7/16, cyclo-S-acetyl-dTyr--Lys--Gly--Asp--Pen--Arg--NH2] ({CH2CO}-[dY]KGD[Pen]R-NH2; thioether N-5) | > 10000 | – | 150 | without substantial increased cutaneous bleeding time
N=C(N)NCCC[C@@H]1NC(=O)[C@@H](Cc2ccc(O)cc2)NC(=O)CCC[C@@H](C(=O)N[C@@H](CCCCN)C(N)=O)NC(=O)[C@H](CC(=O)O)NC(=O)CNC1=O [10/20, cyclo(1-5)dTyr--Arg--Gly--Asp--L-α-aminoadipic acid-Lys--NH2] ([dY]RGD[Aad]K-NH2; lactam N-5) | 2310 | 2,0 | 12.4 | –
N=C(N)NCCC[C@@H]1NC(=O)[C@@H](Cc2ccc(O)cc2)NC(=O)CSC[C@@H](C(=O)N[C@@H](CCCN)C(N)=O)NC(=O)[C@H](CC(=O)O)NC(=O)CNC1=O [7/5, cyclo-S-acetyl-dTyr--Arg--Gly--Asp--Cys--Orn--NH2] ({CH2CO}-[dY]RGDC[Orn]-NH2; thioether N-5) | 63 | 1.26 | 11 | –
